{
  "source": "patent US5705509A",
  "about": "“Tricyclic heterocyclic compounds as 5-HT4 receptor antagonists” (SmithKline Beecham plc, priority 1993, dated 1998)",
  "molecular_target": "T1, 5-HT4 receptor (Cavia porcellus, UniProt O70528)",
  "T1 construct": "Longitudinal muscle-myenteric plexus preparations, approximately 3 cm long, are obtained from the distal colon region; from tissue; host or cells: guinea-pig distal colon, longitudinal muscle-myenteric plexus",
  "T1 sequence (O70528 whole entry)": "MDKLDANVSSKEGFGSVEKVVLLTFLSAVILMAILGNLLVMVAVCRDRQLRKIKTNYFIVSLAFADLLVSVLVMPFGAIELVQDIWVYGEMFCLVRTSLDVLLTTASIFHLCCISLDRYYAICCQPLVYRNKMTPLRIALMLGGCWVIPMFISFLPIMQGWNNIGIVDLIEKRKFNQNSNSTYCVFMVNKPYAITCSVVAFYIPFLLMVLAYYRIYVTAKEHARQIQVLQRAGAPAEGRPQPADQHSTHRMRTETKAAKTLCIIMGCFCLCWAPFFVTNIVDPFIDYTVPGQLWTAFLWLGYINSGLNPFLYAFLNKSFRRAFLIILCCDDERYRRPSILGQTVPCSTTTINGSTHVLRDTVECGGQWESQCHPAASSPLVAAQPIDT",
  "test": "Guinea pig colon 5-HT4 receptor antagonist activity (reduction of 5-HT evoked contraction of longitudinal muscle-myenteric plexus)",
  "conditions": "distal colon longitudinal muscle-myenteric plexus; contraction evoked by 5-HT; methiothepin 10^-7 M and granisetron 10^-6 M present; n=4; read-out: pIC50 (-log concentration of antagonist which reduces the contraction by 50%) (converted)",
  "procedure": "Male guinea-pigs, weighing 250-400 g are used. Longitudinal muscle-myenteric plexus preparations, approximately 3 cm long, are obtained from the distal colon region. These are suspended under a 0.5 g load in isolated tissue baths containing Krebs solution bubbled with 5% CO2 in O2 and maintained at 37° C. In all experiments, the Krebs solution also contains methiothepin 10^-7 M and granisetron 10^-6 M to block effects at 5-HT1, 5-HT2 and 5-HT3 receptors.\nAfter construction of a simple concentration-response curve with 5-HT, using 30s contact times and a 15 min dosing cycle, a concentration of 5-HT is selected so as to obtain a contraction of the muscle approximately 40-70% maximum(10^-9 M approx). The tissue is then alternately dosed every 15 min with this concentration of 5-HT and then with an approximately equi-effective concentration of the nicotine receptor stimulant, dimethylphenylpiperazinium (DMPP). After obtaining consistent responses to both 5-HT and DMPP, increasing concentrations of a putative 5-HT4 receptor antagonist are then added to the bathing solution. The effects of this compound are then determined as a percentage reduction of the contractions evoked by 5-HT or by DMPP. […] A compound which reduces the response to 5-HT but not to DMPP is believed to act as a 5-HT4 receptor antagonist.",
  "data": [
    {"smiles": "CCCCN1CCC(COC(=O)c2cc3[nH]cnc3c3c2OCCO3)CC1", "note": "[Example 1, (1-Butyl-4-piperidinyl)methyl 1 H-7,8-dihydro-[1,4]-dioxino[2,3-g]benzimidazole-5-carboxylate]", "values": [
      {"measurement": "IC50", "value": 166, "unit": "nM"}
    ]}
  ]
}
